Row | melting point | SMILES
1 | 251 to 253 °C | N#Cc1cnc2cc(C#CCO)ccc2c1Nc1ccc(Cl)cc1Cl
2 | 158 to 160 °C | N#Cc1cnc2ccsc2c1Oc1ccc(Cl)cc1Cl
3 | 102 °C | Cc1ccc(-c2ccccc2)cc1Cn1c(C2CC2)nn(C)c1=O
4 | 119 to 121 °C | CCN(O)C(=O)Cc1ccc2c(c1)C(=O)c1ccccc1CO2
5 | 107 to 109 °C | FC(F)(F)Cn1cc(C#Cc2cccc(Br)c2)cn1
6 | 140 to 141 °C | CCC1CN(Cc2ccccc2)C(=O)C(=C2SC=CS2)C1=O (stereo unspecified)
7 | 175 to 176 °C | O=C(Nc1ccc(Oc2ccnc(-n3ccnc3)n2)c2ccccc12)c1cc(F)cc(N2CCCCC2)c1
8 | 126 °C | CCCCCc1ccc(-c2cnc(-c3ccc(C#N)cc3)nc2)cc1
9 | 146 to 147 °C | Cc1oc(-c2ccc(C(F)(F)F)cc2)nc1COc1ccc(CN(O)C(N)=O)cc1
10 | 249 to 252 °C | Cc1ccccc1Cc1n[nH]c2c1c(=O)n(-c1cccc(C(F)(F)F)c1)c1ncccc21
11 | 121 to 123 °C | CCN1CC=C(c2ccc(Nc3ncc4ccc(-c5ccccc5N(C)S(C)(=O)=O)n4n3)c(OC)c2)CC1
12 | 140 to 142 °C | CCOC(=O)NCc1cccc(-c2ccnc3c(C#N)cnn23)c1
13 | 140 °C | CCOC(=O)c1cc2cc(N=[N+]=[N-])ccc2[nH]1
14 | 185 to 187 °C | Cc1nnc2ccc(-c3cccc(C(F)(F)F)c3)cn12
15 | 139 to 140 °C | CCN(CC)CCCOc1ccc(NC(=O)c2ccccc2)cc1NC(=O)c1ccccc1
16 | 240 to 242 °C | CCOCc1nc2c(N)nc3ccccc3c2n1Cc1cc(-c2cccnc2)no1
17 | 229 to 231 °C | Cc1nc2c(s1)-c1nc(NC(=O)c3ccccc3)ncc1CC2
18 | 180 to 183 °C | O=C(O)COc1ccc2c(=O)c3c(F)cccc3oc2c1
19 | 115 to 116 °C | COc1ccc(C(C)(O)c2ocnc2C)cc1 (stereo unspecified)
20 | 131 °C | CC(C)(C#N)c1cc(CSc2ccc(O)c(Cl)c2)cc(Cn2cncn2)c1
21 | 104 to 105 °C | COC(=O)c1cccc(-c2ccc3c(c2)NCC3)c1
22 | 72 to 74 °C | Cc1ccc(CCOc2ncnc3c(F)cccc23)cc1
23 | 60 to 61 °C | CC(=O)c1c(-c2ccncc2)sc(Cl)c1C
24 | 162 °C | Cc1cc2c(NCc3ccc4c(c3)OCO4)nc(-n3ccnc3)nc2s1
25 | 217 to 219 °C | COc1cc(Nc2c(C#N)cnc3cc(Cl)c([N+](=O)[O-])cc23)c(C)cc1Cl
26 | 143 °C | CCCOc1c(OC)c(OC)cc(C)c1C(=O)c1c(Cl)cccc1Cl

Row | melting point | SMILES
27 | 280 °C | CNc1ncnc2c1c(-c1ccc([N+](=O)[O-])o1)nn2C
28 | 166 to 168 °C | CS(=O)(=O)c1ccc(-c2cnn(-c3ccc(F)c(F)c3)c(=O)c2Cc2ccccc2)cc1
29 | 107 to 108 °C | COc1ccc2c(c1)Oc1c(cccc1OCc1ccccc1)C2
30 | 138 to 140 °C | CCOC(=O)c1c(-c2ccc(Cl)cc2)[nH]c(C(F)(F)F)c1C(F)(F)F
31 | 123 to 125 °C | CCCCS(=O)(=O)NC(=O)C[C@H]1O[C@H](c2cccc(OC)c2OC)c2cc(Cl)ccc2N(CC(C)(C)CO)C1=O
32 | 212 to 214 °C | Cc1cc(C)c(NC(=O)N(Cc2ccccc2)CC2(c3ccccc3)CCCC2)c(C)c1
33 | 120 to 130 °C | Cc1cc(-c2cccc(NC(=O)N[C@@H]3c4cc(C#N)ccc4OC(C)(C)[C@H]3O)c2)nn1C
34 | 115 to 116 °C | CCCCCC(C)Nc1nnc(-c2cccc(Oc3ccc(C(C)(C)C)cc3)c2)s1 (stereo unspecified)
35 | 143 to 174 °C | c1ccc(-c2cccc3c4c([nH]c23)CCNCC4)cc1
36 | 133 to 135 °C | CCc1nnc2ccc(-c3ccccc3)nn12
37 | 92 to 94 °C | COC(=O)C(=O)c1ccc(OCCOc2ccc3cccnc3c2)cc1
38 | 182 to 183 °C | CS(=O)(=O)Nc1ccc(N2CCN(c3cc([N+](=O)[O-])ccn3)CC2)cc1
39 | 210 to 212 °C | Cc1cccc(/C=C/C2=CCN(Cc3c[nH]c4ncccc34)CC2)c1
40 | 124 to 125 °C | CC(=O)OCCn1c(C)c(C(=O)Nc2ccc(OCC(C)(C)C)c(C#N)c2)c2cc(F)ccc21
41 | 61 to 62 °C | CCOC(=O)c1cnn(-c2c(Cl)cc(C(F)(F)F)cc2Cl)c1C
42 | 159 °C | OCCN1CCC(Nc2nc3cncnc3n2Cc2ccc(F)cc2)CC1
43 | 78 to 80 °C | CCCOCc1cc2c(-c3ccc(OCc4ccccc4)cc3)c(CC)c3cccc1n32
44 | 117 to 118 °C | CCn1nc(-c2cccc(Cl)c2)c2ncccc2c1=O
45 | 166 to 167 °C | CCOC(=O)C=Nc1cc(Cl)ccc1C(=O)O
46 | 160 to 163 °C | COC(=O)c1ccc(C2OC23Cc2ccccc2C3=O)cc1 (stereo unspecified)
47 | 150 to 152 °C | O=C(O)CCC(=NO)c1ccc(-c2ccccc2F)cc1
48 | 99 to 104 °C | Cn1c(CO)c(-c2ccc(F)cc2)c2ccccc21
49 | 217 to 218 °C | Cc1nnc(-c2ccnc(Nc3cccc(C(F)(F)F)c3)c2)o1
50 | 84 to 85 °C | CCOC(=O)c1cc(-c2ccc(Cl)cc2)cnc1C(F)(F)F
51 | 161 to 164 °C | CCOCc1nc2c(N)nc3cc(-n4ccccc4=O)ccc3c2n1CCCOC(C)C

The next lines start with the molecule.

Row | SMILES | melting point
52 | CC1C(=O)CN[C@H]2c3ccc(Cl)cc3CC[C@H]12 (stereo partly specified) | 71.5 to 73 °C
53 | CNC(=O)[C@H]1O[C@@H](n2cnc3c(NCc4cc(Cl)ccc4OCC4OC(O)C(O)C(O)C4O)ncnc32)[C@H](O)[C@@H]1N (stereo partly specified) | 212 to 218 °C
54 | CCNC(=O)NC(=O)Nc1ccccc1 | 80 to 81.5 °C
55 | O=c1c2ccccc2nc(-c2cc(-c3ccncc3)c(N3CCOCC3)s2)n1-c1ccccc1 | 230 to 231 °C
56 | CCC(O)(CC)[C@H](C[C@H](O)[C@H](CC1CCCCC1)NC(=O)[C@H](Cc1cscn1)NC(=O)OC(C)(C)C)C(=O)NC | 165 to 168 °C
57 | CC1(C)NC(=O)N(c2ccc(F)cc2)C1=O | 166 to 167 °C
58 | CC1(C)NC(=S)C1(C)C | 117 to 118 °C
59 | c1ccc(NCP2CN(c3ccccc3)CN(c3ccccc3)C2)cc1 | 96 to 97 °C
60 | CCC1=NN=C(c2ccc(OC)c(OC)c2)c2cc(OC)c(OC)cc2C1CC (stereo unspecified) | 142 to 144 °C
61 | Cc1ccc(C(=O)O)c(NC(=O)C(F)(F)F)c1 | 178 to 180 °C
62 | CCSC(=O)OCOC(=O)COc1nc(Cl)c(Cl)cc1Cl | 70 to 71 °C
63 | COC(=O)c1c(-c2cc(C)c(O)c(C)c2)c(C)n2c1-c1cc(OC)c(OC)cc1CC2C (racemic) | 177 to 179 °C
64 | CC1(C#N)C(=O)C2=C(c3ccccc3)NC(=O)C2=C1c1ccccc1 (stereo unspecified) | 299 to 301 °C
65 | O=S(=O)(CCCl)CCC(F)(F)C(F)(F)C(F)(F)C(F)(F)C(F)(F)C(F)(F)C(F)(F)C(F)(F)F | 130 to 131 °C
66 | Nc1cc(C2SCCCS2)c(Cl)cc1F | 112 to 115 °C
67 | COc1ccc(C2CCC(C(=O)O)CC2)c2c1OCO2 (stereo unspecified) | 206 to 208 °C
68 | CC(=O)c1ncn2c1CN=C(c1ccccc1Cl)c1cc(Cl)ccc1-2 | 214 to 216 °C
69 | CN(C)CCCn1c2c(c3ccccc31)CC(O)CC2 (stereo unspecified) | 174 to 176 °C
70 | CC1(C)CCC(Cc2ccc(Cl)cc2)C1(O)COS(C)(=O)=O (stereo unspecified) | 113 to 114 °C
71 | c1cncc(N=C2SCC3Cc4ccccc4N23)c1 (racemic) | 131 °C
72 | COC(=O)c1ccc(C(F)(F)F)nc1S(=O)(=O)NC(C)(C)C | 76 to 83 °C
73 | O=S(=O)(CCl)c1ncc(Cl)cn1 | 100 °C
74 | COC(=O)Cc1cc(=O)[nH]c2cc(Br)ccc12 | 208 to 210 °C
75 | CC(C)=CCN1CC(=O)Nc2cc(S(=O)(=O)Oc3ccccc3)ccc21 | 132 °C
76 | CCCCCCC(=N)NC(=S)Nc1ccc(Br)cc1 | 112 to 113 °C

Row | SMILES | melting point
77 | CC(=O)N(c1nc2cc3nc(N(C(C)=O)N4CCCCC4C)sc3cc2s1)N1CCCCC1C (stereo unspecified) | 242 to 245 °C
78 | CC(C)(COc1ccc([N+](=O)[O-])cc1)c1ccccc1 | 79 to 80 °C
79 | CCN1C=C2C=C(S)N=CN2N1 | 251 to 254 °C
80 | Oc1ccc2nc(CCl)oc2c1 | 148 to 154 °C
81 | N#Cc1nn(-c2c(Cl)cc(C(F)(F)F)cc2Cl)cc1C1C=CCCCC1 (stereo unspecified) | 106 to 107 °C
82 | CC(=O)OCC1OC(n2ccnc2[N+](=O)[O-])CC1OC(C)=O (stereo unspecified) | 155 °C
83 | O=C1CCCCc2cc(OCC3CCCCC3)ccc21 | 86 to 88 °C
84 | COC(=O)[C@@H]1C[C@H](OC(=N)C(Cl)(Cl)Cl)C(=O)[C@H]2[C@@]1(C)CC[C@H]1C(=O)O[C@H](c3ccoc3)C[C@]21C | 120 to 123 °C
85 | CCCCn1cncc1C(O)(c1ccc(Cl)cc1)c1ccc2c(c1)c(-c1cccc(Cl)c1)cc(=O)n2C (stereo unspecified) | 175 °C
86 | NS(=O)(=O)c1ccc(-c2ccccc2-c2ccc(C(F)(F)F)cc2)cc1 | 188 °C
87 | COC(=O)C1CC(C#N)(c2cccs2)CCC1=O (stereo unspecified) | 76 to 78 °C
88 | O=C(Nc1cc2ncc(CN3CCCC3)cc2cc1N1CCCC1)c1ccc(-c2ccc(F)cc2)cc1 | 182 to 184 °C
89 | CC(C)(C)c1ccc(O)c(C=NO)c1 | 116 to 118 °C
90 | CC(C)C1(C)N=C2c3ncc(C4OCCO4)cc3C(=O)N2C1=O (stereo unspecified) | 102 to 104 °C
91 | OC1(c2ccc(Cl)cc2)CCNC1 (stereo unspecified) | 79 to 80 °C
92 | CNc1nn(C(=O)NC(C)CCc2ccccc2Cl)c(=O)n1C (stereo unspecified) | 133 to 135 °C
93 | CC(=O)Nc1ccn(C2OC(COC(C)=O)C(Br)C2OC(C)=O)c(=O)n1 (stereo unspecified) | 179 to 180 °C
94 | C=CCN1C(=O)N(c2ccc([N+](=O)[O-])c(C(F)(F)F)c2)C(=O)C1(C)C | 105 °C
95 | COC(=O)C1=C(Cl)C(=NO)CC(c2ccc(Cl)c(OC)c2F)N1 (stereo unspecified) | 174 to 176 °C
96 | CC(C)(C)C(=O)C(CS(=O)(=O)c1ccc(Cl)cc1)n1cncn1 (stereo unspecified) | 134 °C
97 | COc1ccc(S(=O)(=O)Nc2c(Cl)ncnc2Nc2ccccc2)cc1 | 174 to 175 °C
98 | CC1=NC(Cc2ncc(Br)cn2)C(Br)=CN1 (stereo unspecified) | 176 °C
99 | COc1ccc(C(=O)Nc2c(Cl)cc(N)cc2Cl)cc1OC1CCCC1 | 170 to 172 °C
100 | NC(=O)COc1ccccc1C(=O)Nc1ccc(C(=O)N2CCCCc3ccccc32)cc1 | 198 to 199 °C
101 | COC(=O)C1Cc2c(cccc2C(C)C)C(=O)CS1 (stereo unspecified) | 116 to 117 °C

— a melting point compilation (Tetko et al.; mined from patent text by program, amines drawn as free bases though some values may be those of a salt)
